{"source": "patent US7879880B2", "about": "“Substituted aniline derivatives useful as histamine H3 antagonists” (Schering Corporation, priority 2005, dated 2011)", "key": {"[1]": {"target": "T1, guinea pig brain H3 receptor (Cavia porcellus, UniProt Q9JI35)", "T1 construct": "The brain tissue was homogenized with a solution of 50 mM Tris, pH 7.5; from tissue; host or cells: guinea pig brain membranes", "T1 sequence (Q9JI35 whole entry)": "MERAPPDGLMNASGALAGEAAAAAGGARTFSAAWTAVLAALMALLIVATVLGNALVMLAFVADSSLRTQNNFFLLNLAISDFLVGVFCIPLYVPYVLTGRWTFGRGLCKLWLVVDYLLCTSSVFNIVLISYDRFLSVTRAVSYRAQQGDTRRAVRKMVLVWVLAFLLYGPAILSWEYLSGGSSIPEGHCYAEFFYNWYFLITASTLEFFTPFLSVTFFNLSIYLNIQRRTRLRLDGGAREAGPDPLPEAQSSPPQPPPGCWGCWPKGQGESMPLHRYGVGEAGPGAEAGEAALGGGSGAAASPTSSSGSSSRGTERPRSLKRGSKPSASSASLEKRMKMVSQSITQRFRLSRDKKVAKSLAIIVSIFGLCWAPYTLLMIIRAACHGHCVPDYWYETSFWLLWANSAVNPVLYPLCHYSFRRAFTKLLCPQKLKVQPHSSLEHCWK", "assay": "H3-receptor binding assay, guinea pig brain membranes", "settings": "[3H]R-α-methyl histamine or [3H]Nα-methyl histamine", "experimental": "(§1) The source of the H3 receptors in this experiment was guinea pig brain. Alternatively, the source of H3 receptors was recombinant human receptor, expressed in HEK-293 (human embryonic kidney) cells.\nThe animals weighed 400-600 g. The brain tissue was homogenized with a solution of 50 mM Tris, pH 7.5. The final concentration of tissue in the homogenization buffer was 10% w/v. The homogenates were centrifuged at 1,000×g for 10 min. in order to remove clumps of tissue and debris. The resulting supernatants were then centrifuged at 50,000×g for 20 min. in order to sediment the membranes, which were next washed three times in homogenization buffer (50,000×g for 20 min. each). The membranes were frozen and stored at −70° C. until needed.\nAll compounds to be tested were dissolved in DMSO and then diluted into the binding buffer (50 mM Tris, pH 7.5) such that the final concentration was 2 μg/ml with 0.1% DMSO. Membranes were then added (400 μg of protein, 5 μg in the case of recombinant human receptor) to the reaction tubes. The reaction was started by the addition of 3 nM [^3H]R-α-methyl histamine (8.8 Ci/mmol) or 3 nM [^3H]N^α-methyl histamine (80 Ci/mmol) and continued under incubation at 30° C. for 30 min. Bound ligand was separated from unbound ligand by filtration, and the amount of radioactive ligand bound to the membranes was quantitated by liquid scintillation spectrometry. […]"}, "[2]": {"target": "T2, recombinant human H3 receptor (Homo sapiens, UniProt Q9Y5N1)", "T2 construct": "expressed in transfected cells; host or cells: HEK-293 (human embryonic kidney) cells", "T2 sequence (Q9Y5N1 whole entry)": "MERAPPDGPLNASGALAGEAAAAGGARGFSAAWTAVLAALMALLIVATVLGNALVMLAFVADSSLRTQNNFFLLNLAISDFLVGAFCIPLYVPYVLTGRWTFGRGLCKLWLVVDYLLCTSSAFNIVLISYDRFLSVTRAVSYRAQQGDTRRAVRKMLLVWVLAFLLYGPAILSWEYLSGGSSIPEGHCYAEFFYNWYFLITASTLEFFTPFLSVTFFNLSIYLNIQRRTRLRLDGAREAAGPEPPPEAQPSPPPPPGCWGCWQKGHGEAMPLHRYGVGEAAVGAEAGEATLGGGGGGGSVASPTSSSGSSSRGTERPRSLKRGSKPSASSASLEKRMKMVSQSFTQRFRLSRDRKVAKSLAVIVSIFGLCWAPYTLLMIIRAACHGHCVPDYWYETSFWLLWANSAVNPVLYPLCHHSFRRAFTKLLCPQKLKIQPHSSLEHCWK", "assay": "H3-receptor binding assay, recombinant human receptor expressed in HEK-293 cells", "settings": "[3H]R-α-methyl histamine or [3H]Nα-methyl histamine", "experimental": "as §1\nAll compounds to be tested were dissolved in DMSO and then diluted into the binding buffer (50 mM Tris, pH 7.5) such that the final concentration was 2 μg/ml with 0.1% DMSO. Membranes were then added (400 μg of protein, 5 μg in the case of recombinant human receptor) to the reaction tubes. The reaction was started by the addition of 3 nM [^3H]R-α-methyl histamine (8.8 Ci/mmol) or 3 nM [^3H]N^α-methyl histamine (80 Ci/mmol) and continued under incubation at 30° C. for 30 min. Bound ligand was separated from unbound ligand by filtration, and the amount of radioactive ligand bound to the membranes was quantitated by liquid scintillation spectrometry. All incubations were performed in duplicate and the standard error was always less than 10%. Compounds that inhibited more than 70% of the specific binding of radioactive ligand to the receptor were serially diluted to determine a Ki (nM)."}, "[3]": {"assay": "Effects on diet-induced obesity in mice (weight gain and food intake)", "format": "in vivo", "settings": "mice on high-fat diet, 10 mg/kg by gavage once daily for four days, vs vehicle control", "experimental": "Lean mice (male, approx. 5 weeks of age, purchased from The Jackson Laboratory, Bar Harbor, Me.) were maintained in individual cages at 22° C. on a 12:12 hr light/dark cycle. The “treated” mice (N=12) were administered a Thiazole Derivative (10 mg/kg) by gavage once daily for four consecutive days. Control mice (N=12) were administered vehicle only, once daily for four days. Both control and treated mice were fed a high-fat diet from days 0 to 4 and body weight and food intake were monitored daily. The percent inhibition for weight gain and food intake was calculated by comparing the increase in weight gain and food intake in the treated mice to the increase in weight gain and food intake in the control mice.\nCompound numbers correspond to the compound numbering set forth in the specification."}}, "data": [{"smiles": "Cc1cccc(C)c1NC(=O)N1CCN(C(=O)c2ccc(Nc3ccncc3)cc2)CC1", "note": "[Compound 54A]", "values": [{"measurement": "Ki", "setting": "[1]", "result": 2, "unit": "nM"}]}, {"smiles": "O=C(c1ccc(Nc2ccncc2)cc1)N1CCC(n2c(-c3ccccn3)nc3cccnc32)CC1", "note": "[Compound 59A]", "values": [{"measurement": "Ki", "setting": "[2]", "result": 3, "unit": "nM"}, {"measurement": "Food intake Inhibition (%)", "setting": "[3]", "result": 1.1, "unit": "%"}, {"measurement": "Weight Gain Inhibition (%)", "setting": "[3]", "result": 21.0, "unit": "%"}]}, {"smiles": "Nc1cc(Nc2ccc(C(=O)N3CCC(n4c(-c5ccccn5)nc5cccnc54)CC3)cc2)ccn1", "note": "[Compound 160A]", "values": [{"measurement": "Food intake Inhibition (%)", "setting": "[3]", "result": 18.3, "unit": "%"}, {"measurement": "Weight Gain Inhibition (%)", "setting": "[3]", "result": 33.0, "unit": "%"}]}]}
